Test results as given in patent publication US20130031644A1, “AUTONOMOUS LUX REPORTER SYSTEM AND METHODS OF USE” (University of Tennessee Research Foundation, priority 2011, published 2013).

Legend:
[1] = test system: luxC gene transcription under the tetracycline response element in HEK293 cells (pLuxAB/pLuxCDEfrp-TET); assay: rt-PCR of luxC transcription in response to doxycycline; assay type: cell-based, human; details: for average CT value for luxC detection: 24 h, average of eleven cell lines; for increase in luxC transcription / reduction of cycles to reach CT: best performing cell line
Method: Twenty-four h post-transfection, the medium was removed and replaced with complete medium supplemented with the appropriate antibiotic. Selection of successfully transfected clones was performed by refreshing selective medium every 4-5 d until all untransfected cells had died. At this time, colonies of transfected cells were removed by scraping, transferred to individual 25 cm^2 cell culture flasks, and grown in complete medium supplemented with the appropriate antibiotics. To screen the resulting cell lines for the ability to regulate luxC transcription in response to doxycycline, relative reverse transcription PCR (rt-PCR) was used to determine the level of luxC mRNA present 24 h following the addition of 0, 10, or 100 ng doxycycline/ml to the complete growth medium. To this end, each isolated cell line was split into 4 25 cm^2 cell culture flasks upon reaching 80% confluence. Cells were then grown at 37° C. and 5% CO2 until again reaching ˜80% confluence. At this point, one of the flasks was routinely passaged to maintain a stock of cells for future use. The remaining 3 flasks were spiked with 0, 10, or 100 ng doxycycline/ml and returned to the incubator. Twenty-four h post doxycycline addition, cells were harvested and total RNA was isolated using an RNeasy isolation kit (Qiagen). Isolated RNA was used directly for rt-PCR analysis, and cell lines displaying the greatest range in luxC transcription between 0 ng Doxycycline/ml treatment and either 10 ng or 100 ng doxycycline/ml treatment were selected for bioluminescent screening.

[2] = test system: tetracycline responsive lux reporter HEK293 cells (pLuxAB/pLuxCDEfrp-TET); assay: Bioluminescent measurement in response to doxycycline; assay type: cell-based, human; details: for average total flux: 24 h period; for range of total flux over the course of the assay: after 1 h post treatment
Method: Cell lines displaying the greatest upregulation of luxC gene transcription following treatment with 10 ng and 100 ng Doxycycline/ml were passaged into 75 cm^2 tissue culture flasks (Corning) and grown at 37° C. and 5% CO2 until they reached 90% confluence. Cells were then harvested by trypsinization and cell number was determined as the average of two counts using a hemocytometer. Approximately 1×10^6 cells per well were plated in triplicate in opaque 24-well tissue culture plates (Costar) in DMEM without phenol red and supplemented with 10% fetal bovine serum, 0.01 mM non-essential amino acids, and 0.01 mM sodium pyruvate. Immediately post plating, wells were spiked with either 0, 10, 100, or 500 ng Doxycycline/ml. Photon counts were then recorded using an IVIS Lumina in vivo imaging system and analyzed with Living Image 3.0 software (Caliper Life Sciences). The change in light output over time was determined in photons (p)/sec (s) for each well by averaging the photon output over integration times of 10 min and reported with the standard error of the mean.

[3] = target: T1, bacterial luciferase (lux) in protein extracts of HEK293 cells (Photorhabdus luminescens, UniProt P19839); assay: In vitro supplementation assays of lux cell extracts (oxidoreductase, aldehyde); assay type: biochemical, P. luminescens; details: 0.002% (w/v) n-decanal
T1 construct: expressed in transfected cells; host or cells: HEK293 cells stably carrying pLuxAB (luxA-IRES-luxB, CMV promoter), co-transfected with pLuxCDEfrp:WT or pLuxCDEfrp:CO; The soluble protein extract was made by freeze/thaw
T1 sequence (P19839 1-360): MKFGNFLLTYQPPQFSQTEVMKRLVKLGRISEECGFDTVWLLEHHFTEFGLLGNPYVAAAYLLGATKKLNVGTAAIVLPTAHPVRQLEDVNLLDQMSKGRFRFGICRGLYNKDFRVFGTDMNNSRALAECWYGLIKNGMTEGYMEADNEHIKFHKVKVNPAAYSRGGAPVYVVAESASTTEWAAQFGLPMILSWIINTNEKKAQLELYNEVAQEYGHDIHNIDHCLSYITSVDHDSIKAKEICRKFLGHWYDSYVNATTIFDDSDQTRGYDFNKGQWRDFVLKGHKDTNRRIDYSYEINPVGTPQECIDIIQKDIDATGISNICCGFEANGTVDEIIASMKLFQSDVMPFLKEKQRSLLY
T1 sequence (P19840 1-327 partner): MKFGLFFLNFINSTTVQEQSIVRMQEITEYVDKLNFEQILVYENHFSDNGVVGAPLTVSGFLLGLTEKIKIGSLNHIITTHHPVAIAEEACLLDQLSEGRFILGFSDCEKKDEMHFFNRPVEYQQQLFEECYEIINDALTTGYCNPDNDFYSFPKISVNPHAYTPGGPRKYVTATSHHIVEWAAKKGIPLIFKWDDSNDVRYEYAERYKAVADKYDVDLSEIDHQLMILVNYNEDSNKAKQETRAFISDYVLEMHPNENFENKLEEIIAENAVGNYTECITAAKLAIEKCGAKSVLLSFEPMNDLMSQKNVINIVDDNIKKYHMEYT
Method: Bioluminescence was measured using an FB 14 luminometer (Zylux) with a 1 sec integration time. To prepare the sample for in vitro bioluminescent measurement, 400 μl of the isolated protein extract was combined with 500 μl of either oxidoreductase supplemented light assay solution containing 0.1 mM NAD(P)H, 4 μM FMN, 0.2% (w/v) BSA and 1 U of oxidoreductase protein isolated from V. fischeri (Roche), or oxidoreductase deficient light assay solution (distilled water substituted for the 1 U of oxidoreductase protein). Following the initial bioluminescent reading, samples were amended with 0.002% (w/v) n-decanal and the readings were continued to determine if additional aldehyde could increase light output. All bioluminescent signals were normalized to total protein concentration as determined by BCA protein assay (Pierce) and reported as relative light units (RLU)/mg total protein. […] A 15 μl aliquot of cells was removed and counted using a hemocytometer to allow all values to be normalized to viable cell counts. […]
Total protein was extracted from co-transfected pLuxCDEfrp:CO/pLuxAB or pLuxCDEfrp:WT/pLuxAB cell lines or the pTa2AluxAB transfected cell line using a freeze/thaw procedure. […] Bioluminescence was measured using an FB14 luminometer (Zylux) with a 1 sec integration time. […]

[4] = test system: constitutively bioluminescent HEK293 cells expressing pLuxCDEfrp/pLuxAB; assay: Bioluminescent measurement in response to toxic chemical exposure (n-decanal); assay type: cell-based, human
Method: To determine the ability of constitutively bioluminescent HEK293 cells to function as a bioreporter for toxic chemical exposure, cells stably expressing pLuxCDEfrp/pLuxAB were exposed to increasing concentrations of the cytotoxic aldehyde n-decanal. HEK293 cells previously determined to be capable of continuous bioluminescent output from the expression of the pLuxCDEfrp/pLuxAB plasmids were passaged into 75 cm^2 tissue culture flasks (Corning) and grown at 37° C. and 5% CO^2 until they reached 90% confluence. Cells were then harvested by trypsinization and cell number was determined as the average of two counts using a hemocytometer. Approximately 1×10^6 cells per well were plated in all wells in opaque 24-well tissue culture plates (Costar) in DMEM without phenol red and supplemented with 10% fetal bovine serum, 0.01 mM non-essential amino acids, and 0.01 mM sodium pyruvate. Triplicate wells were treated with serial dilutions of n-decanal ranging from 0.1% to 1×10^−5%, with a control set receiving no n-decanal amendment to determine maximal bioluminescent expression. Photon counts were then recorded using an IVIS Lumina in vivo imaging system and analyzed with Living Image 3.0 software (Caliper Life Sciences). The change in light output over time was determined in photons (p)/sec/cm^2/steridian (sr) for each well using integration times of […] once every hour for 24 h and reported as the average of three runs with the standard error of the mean.

[5] = native state, 37° C.; cited from earlier work

Question: Which results are given for C[C@H]1c2cccc(O)c2C(=O)C2=C(O)[C@]3(O)C(=O)C(C(N)=O)=C(O)[C@@H](N(C)C)[C@@H]3[C@@H](O)[C@@H]21 [doxycycline]?
Answer: average CT value for luxC detection ([1]; 10 ng doxycycline/ml): 11.9 (±0.7) cycles; average CT value for luxC detection ([1]; 100 ng doxycycline/ml): 11.5 (±0.6) cycles; increase in luxC transcription ([1]; 10 ng doxycycline/ml): approximately 11 fold; reduction of cycles to reach CT ([1]; 10 ng doxycycline/ml): 3.5 cycles; increase in luxC transcription ([1]; 100 ng doxycycline/ml): ~20 fold; reduction of cycles to reach CT ([1]; 100 ng doxycycline/ml): 4.3 cycles; average total flux ([2]; 10 ng doxycycline/ml, not significant vs untreated (p=0.06)): 11,500 (±200) p/s; range of total flux over the course of the assay ([2]; 10 ng doxycycline/ml): 1,900 p/s; incubation period to significant up regulation in bioluminescent output ([2]; 100 ng doxycycline/ml): 1 h; average total flux ([2]; 100 ng doxycycline/ml, significant vs untreated (p=1.1×10^−5)): 12,500 (±200) p/s; range of total flux over the course of the assay ([2]; 100 ng doxycycline/ml): 1,800 p/s; maximum measured flux ([2]; induced with 100 ng doxycycline/ml): 1.3 (±0.03)×10^4 p/s

Question: With CCCCCCCCCC=O [n-decanal] as the molecule, how does the “increase in light output” value ([3]; extracts of cells with codon-optimized genes) read?
Answer: The value was 58 fold.

Question: What about the “increase in light output” value ([3]; extracts of cells with wild-type genes) of the same molecule?
Answer: Its value is 16 fold.

Question: And the “molar concentration corresponding to the 0.01% treatment” value ([4]; 0.01% decanal)?
Answer: Its value is about 640 µM.

Question: What about the “start of intermittent deviation in bioluminescent flux” value ([4]; 0.01% decanal, post addition) of the same molecule?
Answer: The value was 40 min.

Question: And the “time after addition until deleterious effects consistently observable” value ([4]; 0.01% n-decanal)?
Answer: The value was 4 h.

Question: What about the “effect on bioluminescent output” value ([4]; 0.1% n-decanal) of the same molecule?
Answer: The value was “reduced bioluminescent output immediately following addition”.

Question: What about the “concentration at which the aldehyde became toxic to the HEK293 cell line” value ([4]; 24 h assay) of the same molecule?
Answer: Its value is at least 0.01%.

Question: And the “effect on bioluminescent output” value ([4]; remaining treatment levels (below 0.01%, down to 1×10^−5%))?
Answer: The value was “could not be statistically differentiated from cells not receiving treatment”.

Question: For “firefly luciferase protein: firefly luciferase reporter protein, heat labile under whole animal imaging conditions”, which half life [5] is on record?
Answer: The half life was at least 3 min.
